Experiment: xn = mol fraction of the nth substance listed
Details: Liquid, Vibrating tube method

CCCCCCCC [octane] + c1ccccc1
mass density [kg/m3]
Details	x1 = 0.1097	x1 = 0.2036	x1 = 0.2984	x1 = 0.4069	x1 = 0.5027	x1 = 0.5904	x1 = 0.6989	x1 = 0.7964	x1 = 0.904	x1 = 1
298.15 K, 100 kPa	838.3	813.5	792.3	771.6	755.7	743	729.1	718.2	707.3	698.7
298.15 K, 2130 kPa	839.9	815.2	794	773.3	757.4	744.8	730.9	719.9	709.1	700.4
298.15 K, 4150 kPa	841.6	816.9	795.7	775.1	759.2	746.5	732.6	721.7	710.8	702.2
298.15 K, 6180 kPa	843.3	818.6	797.4	776.8	760.9	748.2	734.3	723.4	712.4	703.8
298.15 K, 8210 kPa	844.9	820.2	799.1	778.5	762.5	749.9	735.9	725	714.1	705.4
298.15 K, 10230 kPa	846.5	821.8	800.7	780.1	764.2	751.5	737.6	726.7	715.7	707
298.15 K, 11250 kPa	847.3	822.7	801.5	780.9	765	752.3	738.4	727.5	716.5	707.8
298.15 K, 12260 kPa	848.1	823.5	802.4	781.7	765.8	753.2	739.2	728.3	717.3	708.6
298.15 K, 14290 kPa	849.7	825.1	803.9	783.4	767.4	754.7	740.8	729.8	718.8	710.1
298.15 K, 16310 kPa	851.2	826.6	805.5	784.9	769	756.3	742.4	731.4	720.4	711.7
298.15 K, 18340 kPa	852.7	828.1	807	786.4	770.5	757.8	743.8	732.9	721.9	713.1
298.15 K, 20370 kPa	854.2	829.6	808.5	788	772	759.3	745.3	734.4	723.3	714.6
298.15 K, 22390 kPa	855.7	831.1	810	789.4	773.4	760.8	746.8	735.8	724.8	715.9
298.15 K, 24420 kPa	857.1	832.6	811.5	790.8	774.9	762.2	748.2	737.2	726.2	717.4
298.15 K, 26450 kPa	858.5	834	812.9	792.3	776.3	763.6	749.6	738.7	727.5	718.8
298.15 K, 28470 kPa	859.9	835.4	814.3	793.7	777.7	765	751	740	728.9	720.1
298.15 K, 29490 kPa	860.6	836.1	815	794.3	778.4	765.7	751.7	740.7	729.6	720.8
298.15 K, 30500 kPa	861.3	836.8	815.7	795	779.1	766.4	752.4	741.4	730.2	721.4
298.15 K, 32530 kPa	862.6	838.1	817	796.4	780.4	767.7	753.7	742.7	731.5	722.7
298.15 K, 34550 kPa	864	839.5	818.4	797.8	781.8	769.1	755	744.1	732.9	724
298.15 K, 36580 kPa	865.3	840.8	819.7	799.1	783.1	770.4	756.4	745.4	734.2	725.3
298.15 K, 38600 kPa	866.6	842.1	821	800.4	784.4	771.7	757.6	746.5	735.4	726.5
298.15 K, 39620 kPa	867.3	842.7	821.6	801	785	772.3	758.2	747.1	736	727.1
308.15 K, 100 kPa	828.4	803.9	783	762.6	747	734.5	720.8	709.9	699.3	690.8
308.15 K, 2130 kPa	830.2	805.7	784.9	764.5	748.8	736.4	722.7	711.8	701.1	692.6
308.15 K, 4150 kPa	832	807.5	786.7	766.3	750.7	738.2	724.5	713.7	703	694.4
308.15 K, 6180 kPa	833.7	809.3	788.5	768.2	752.5	740	726.3	715.5	704.8	696.2
308.15 K, 8210 kPa	835.5	811.1	790.3	770	754.3	741.8	728.1	717.2	706.5	698
308.15 K, 10230 kPa	837.2	812.8	792	771.7	756.1	743.6	729.9	719	708.3	699.7
308.15 K, 11250 kPa	838	813.7	792.9	772.6	756.9	744.4	730.7	719.8	709.1	700.5
308.15 K, 12260 kPa	838.8	814.5	793.7	773.4	757.8	745.3	731.6	720.7	709.9	701.3
308.15 K, 14290 kPa	840.5	816.2	795.4	775.1	759.5	747	733.2	722.3	711.6	703
308.15 K, 16310 kPa	842.1	817.8	797	776.7	761.1	748.6	734.8	723.9	713.1	704.5
308.15 K, 18340 kPa	843.7	819.5	798.7	778.4	762.7	750.2	736.5	725.5	714.8	706.1
308.15 K, 20370 kPa	845.3	821	800.3	780	764.3	751.8	738	727.1	716.3	707.6
308.15 K, 22390 kPa	846.8	822.6	801.8	781.5	765.8	753.3	739.6	728.6	717.8	709.1
308.15 K, 24420 kPa	848.3	824.1	803.4	783.1	767.4	754.8	741.1	730.1	719.3	710.6
308.15 K, 26450 kPa	849.8	825.6	804.9	784.6	768.9	756.3	742.6	731.6	720.8	712
308.15 K, 28470 kPa	851.3	827.1	806.4	786	770.4	757.8	744	733	722.2	713.4
308.15 K, 29490 kPa	852	827.8	807.1	786.8	771.1	758.5	744.8	733.7	722.9	714.1
308.15 K, 30500 kPa	852.7	828.6	807.8	787.5	771.8	759.2	745.5	734.4	723.6	714.8
308.15 K, 32530 kPa	854.2	830	809.2	788.9	773.2	760.7	746.9	735.8	725	716.2
308.15 K, 34550 kPa	855.5	831.4	810.6	790.3	774.6	762	748.3	737.2	726.3	717.5
308.15 K, 36580 kPa	856.9	832.8	812	791.7	776	763.4	749.6	738.5	727.7	718.8
308.15 K, 38600 kPa	858.3	834.2	813.4	793.1	777.3	764.7	750.9	739.9	729	720.2
308.15 K, 39620 kPa	859	834.9	814.1	793.7	778	765.4	751.6	740.6	729.7	720.8
